Results from the supplement of paper PMC10307832.

Tests used:
Assay in all cases: relative viability (nuclei count vs DMSO), 5 days (fraction); higher = more cells survive
[1] = compound: Cc1ccc(C(=O)N(CCCN)[C@@H](c2nc3cc(Cl)ccc3c(=O)n2Cc2ccccc2)C(C)C)cc1 [Ispinesib] + C[C@]1(O)C[C@@H](c2nc(-c3ccc4ccc(-c5ccccc5)nc4c3)c3c(N)nccn32)C1 [Linsitinib] (partner 1 µM)
Procedure, shortened: (§1)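 Nuclei were stained with Hoechst during a one-step fixation (final 0.05% Triton X-100, 1% formaldehyde, 1 ug/ml Hoechst) carried out 5 days after dosing, then counted on 4× images. The cells, lung cancer lines in 1536-well plates, had been dosed by pin tool the day after seeding with one drug alone or a fixed anchor-drug dose plus five library-drug doses (not always all listed) in √10 steps. Relative viability is the nuclei count in treated wells divided by that in vehicle wells, and each value is the median of duplicate plates.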

[2] = compound: Cc1ccc(C(=O)N(CCCN)[C@@H](c2nc3cc(Cl)ccc3c(=O)n2Cc2ccccc2)C(C)C)cc1 [Ispinesib] + CS(=O)(=O)CCNCc1ccc(-c2ccc3ncnc(Nc4ccc(OCc5cccc(F)c5)c(Cl)c4)c3c2)o1 [Lapatinib] (partner 2 µM)
Procedure, shortened: as §1

[3] = compound: Cc1ccc(C(=O)N(CCCN)[C@@H](c2nc3cc(Cl)ccc3c(=O)n2Cc2ccccc2)C(C)C)cc1 [Ispinesib] + O=C(c1cc(Cc2n[nH]c(=O)c3ccccc23)ccc1F)N1CCN(C(=O)C2CC2)CC1 [Olaparib] (partner 8 µM)
Procedure, shortened: as §1

[4] = compound: Cc1ccc(C(=O)N(CCCN)[C@@H](c2nc3cc(Cl)ccc3c(=O)n2Cc2ccccc2)C(C)C)cc1 [Ispinesib] + CC(=O)c1c(C)c2cnc(Nc3ccc(N4CCNCC4)cn3)nc2n(C2CCCC2)c1=O [Palbociclib] (partner 0.5 µM)
Procedure, shortened: as §1

Cell Line | relative viability ([1]; first compound 0.001 µM) | relative viability ([1]; first compound 0.003162 µM) | relative viability ([1]; first compound 0.01 µM) | relative viability ([1]; first compound 0.03162 µM) | relative viability ([1]; first compound 0.1 µM) | relative viability ([2]; first compound 0.001 µM) | relative viability ([2]; first compound 0.003162 µM) | relative viability ([2]; first compound 0.01 µM) | relative viability ([2]; first compound 0.03162 µM) | relative viability ([2]; first compound 0.1 µM) | relative viability ([3]; first compound 0.001 µM) | relative viability ([3]; first compound 0.003162 µM) | relative viability ([3]; first compound 0.01 µM) | relative viability ([3]; first compound 0.03162 µM) | relative viability ([3]; first compound 0.1 µM) | relative viability ([4]; first compound 0.001 µM) | relative viability ([4]; first compound 0.003162 µM) | relative viability ([4]; first compound 0.01 µM) | relative viability ([4]; first compound 0.03162 µM) | relative viability ([4]; first compound 0.1 µM)
EMC-BAC-2 | 0.831 | 0.847 | 0.858 | 0.614 | 0.487 | 0.936 | 0.933 | 1 | 0.724 | 0.233 | 0.479 | 0.474 | 0.513 | 0.418 | 0.325 | 0.509 | 0.556 | 0.506 | 0.432 | 0.431
HOP-62 | 0.99 | 1.14 | 0.952 | 1.05 | 0.742 | 1.11 | 1.07 | 1.15 | 1.11 | 0.231 | 0.62 | 0.215 | 0.341 | 0.312 | 0.186 | 0.448 | 0.548 | 0.617 | 0.516 | 0.388
NCI-H1793 | 0.866 | 1.02 | 0.961 | 0.707 | 0.562 | 0.655 | 0.84 | 0.909 | 0.377 | 0.238 | 1.04 | 0.833 | 1.19 | 0.752 | 0.371 | 0.358 | 0.314 | 0.31 | 0.312 | 0.219
NCI-H1355 | 0.82 | 0.794 | 0.893 | 0.795 | 0.561 | 1.09 | 0.93 | 1.22 | 0.644 | 0.3 | 0.736 | 0.806 | 0.889 | 0.736 | 0.328 | 0.397 | 0.425 | 0.436 | 0.373 | 0.331
COR-L23 | 1.12 | 0.946 | 1 | 0.161 | 0.16 | 1.03 | 1.06 | 0.814 | 0.147 | 0.272 | 0.31 | 0.34 | 0.308 | 0.226 | 0.138 | 0.261 | 0.267 | 0.217 | 0.148 | 0.171
HCC-44 | 0.702 | 0.746 | 0.812 | 0.698 | 0.248 | 1.05 | 1.01 | 1.37 | 0.658 | 0.158 | 0.984 | 0.993 | 1.03 | 1.06 | 0.938 | 0.996 | 0.985 | 0.978 | 0.999 | 0.948
A-427 | 1.15 | 1.13 | 1.15 | 1.21 | 1.12 | 1.09 | 1.07 | 1.13 | 0.406 | 0.162 | 0.714 | 0.784 | 0.728 | 0.696 | 0.22 | 0.53 | 0.538 | 0.55 | 0.322 | 0.282
NCI-H520 | 1.13 | 0.957 | 1.08 | 0.245 | 0.232 | 0.996 | 0.825 | 0.322 | 0.217 | 0.261 | 0.364 | 0.328 | 0.388 | 0.188 | 0.278 | 0.186 | 0.223 | 0.221 | 0.21 | 0.167
